Results from patent US10307407B2, “9H-pyrimido [4,5-B] indoles as BET bromodomain inhibitors” (THE REGENTS OF THE UNIVERSITY OF MICHIGAN, priority 2015, dated 2019).

What was measured:
LNCaP cells = experiment: Cell growth inhibition, 4-day proliferation assay, LNCaP; type: cell-based; conditions: Homo sapiens, 96 h, prostate cancer cell line, 4 days treatment
Protocol: (§1) The effect of representative Compounds of the Disclosure on cell viability was determined in a 4-day proliferation assay. Cells were maintained in the appropriate culture medium with 10% FBS at 37° C. and an atmosphere of 5% CO2. All the cell lines were used within three months of thawing fresh vials.
(§2) Cells were seeded in 96-well flat bottom (Corning COSTAR, Corning, NY, cat#3595) or white opaque cell culture plates (BD Falcon, cat#353296) at a density of 3,000-10,000 cells/well in 75 μl of culture medium. Compounds were serially diluted in the appropriate medium, and 75 μl of the diluted compounds were added to the appropriate wells of the cell plate. After the addition of compounds, the cells were incubated at 37° C. in an atmosphere of 5% CO2 for 4 days. Cell viability was determined using the CellTiter-Glo® Luminescent Cell Viability Assay Kit (Promega, Madison, Wis.) for RS4-11 and MV4-11 cells and WST (2-(2-methoxy-4-nitrophenyl)-3-(4-nitrophenyl)-5-(2,4-disulfophenyl)-2H-tetrazolium, monosodium salt) Cell Counting-8 Kit (Dojindo Molecular Technologies, Inc., Rockville, Md.) for MDA-MB-231 cells according to the manufacturers' instructions.
(§3) Cell growth inhibition of representative Compounds of the Disclosure in representative breast cancer (MDA-MB-231), acute leukemia (MV4-11), and prostate cancer cell lines (LNCaP), as determined by a WST assay, are presented in Table 3. Cells were treated with each inhibitor for 4 days.

MV4-11 cells = experiment: Cell growth inhibition, 4-day proliferation assay, MV4-11; type: cell-based; conditions: Homo sapiens, MV4-11, 96 h, acute leukemia cell line, 4 days treatment
Protocol: as §1, §2
For CellTiter-Glo assay (RS4-11 and MV4-11 cells), 100 μl of CellTiter-Glo® Reagent was added to each well, and then the plates were incubated at room temperature for 10-20 minutes. The luminescent signal was measured using a Tecan Infinite M1000 multimode microplate reader (Tecan, Morrisville, N.C.). The readings were normalized to the DMSO-treated cells and the IC50 was calculated by nonlinear regression (four parameters sigmoid fitted with variable slope, least squares fit, and no constraint) analysis using the GraphPad Prism 5 software.
as §3

recombinant BRD4 BD1 = molecular target: T1, recombinant BRD4 BD1 (Homo sapiens, UniProt O60885); experiment: Competitive fluorescence-polarization (FP) binding assay, BRD4 BD1; conditions: FAM labeled probe 1.5 nM, protein 10 nM, pH 6.5
T1 construct: recombinant BRD4 BD1 and BRD4 BD2 proteins
Protocol: (§4) Fluorescence Polarization (FP) competitive binding studies were carried out using a FAM labeled fluorescent probe (ZBA248 or BRD-1F) to determine binding affinities of representative Compounds of the Disclosure for recombinant BRD4 BD1 and BRD4 BD2 proteins. For example, equilibrium dissociation constants (Kd) values of ZBA248 to these six proteins were determined from protein saturation experiments by monitoring the total fluorescence polarization of mixtures composed with the fluorescent probe at a fixed concentration and proteins with increasing concentrations up to full saturation. Serial dilutions of testing protein were mixed with ZBA248 to a final volume of 200 μl in the assay buffer. In order to achieve large dynamic rages, particularly for BD1 bromodomains, 100 mM phosphate buffer (pH=6.5, 0.01% Triton X-100 (Sigma, 282103) being added right before assays) was used as the assay buffer. Final ZBA248 concentration was 1.5 nM for all proteins. Plates were incubated at room temperature for 30 minutes with gentle shaking to assure equilibrium. FP values in millipolarization units (mP) were measured using the Infinite M-1000 plate reader (Tecan U.S., Research Triangle Park, N.C.) in Microfluor 1 96-well, black, round-bottom plates (Thermo Scientific, Waltham, Mass.) at an excitation wavelength of 485 nm and an emission wavelength of 530 nm. Kd values of ZBA248 were calculated by fitting the sigmoidal dose-dependent FP increases as a function of protein concentrations using Graphpad Prism 6.0 software (Graphpad Software, San Diego, Calif.).
(§5) The IC50 and Ki values of representative Compounds of the Disclosure were determined in a competitive binding experiment as described above. Mixtures of 10 μl of the tested compounds in assay buffer with 40% Ethylene Glycol and 190 μl of preincubated protein/probe complex solution in the assay buffer (100 mM potassium phosphate, pH 6.5, 0.01% Triton X-100) were added into assay plates which were incubated at room temperature for 30 minutes with gentle shaking. Final concentrations of proteins were 10 and 6 nM in assays for BD1 and BD2 of BRD4, respectively. Final probe concentration is 1.5 nM in all assays. Negative controls containing protein/probe complex only (equivalent to 0% inhibition), and positive controls containing only free probes (equivalent to 100% inhibition), were included in each assay plate. FP values were measured as described above. IC50 values were determined by nonlinear regression fitting of the competition curves. Instead of being calculated from IC50 values as described before, Ki values of competitive inhibitors were obtained directly by nonlinear regression fitting as well, based upon the Kd values of the probe to different proteins, and concentrations of the proteins and probes in the competitive assays (Wang, FEBS Lett. 360; 111 (1995); Zhang et al., Analytical Biochemistry, 331; 138 (2004)).
(§6) Binding affinities of representative Compounds of the Disclosure to BRD4 BD1 and BRD4 BD2 proteins in competitive, fluorescence-polarization assays are presented in Table 2.

MDA-MB-231 cells = experiment: Cell growth inhibition, 4-day proliferation assay (WST), MDA-MB-231; type: cell-based; conditions: Homo sapiens, MDA-MB-231, 96 h, breast cancer cell line, 4 days treatment
Protocol: as §1, §2
For WST assay (MDA-MB-231 cells), WST-8 reagent was added to each well at a final concentration of 10% (v/v), and then the plates were incubated at 37° C. for 1-2 hours for color development. The absorbance was measured at 450 nm using a SPECTRAmax PLUS plate reader (Molecular Devices, Sunnyvale, Calif.). The readings were normalized to the DMSO-treated cells and the half maximal inhibitory concentration (IC50) was calculated by nonlinear regression (four parameters sigmoid fitted with variable slope, least squares fit, and no constraint) analysis using the GraphPad Prism 5 software (GraphPad Software, La Jolla, Calif.).
as §3

recombinant BRD4 BD2 = molecular target: T2, recombinant BRD4 BD2 (Homo sapiens, UniProt O60885); experiment: Competitive fluorescence-polarization (FP) binding assay, BRD4 BD2; conditions: FAM labeled probe 1.5 nM, protein 6 nM, pH 6.5
T2 construct: recombinant BRD4 BD1 and BRD4 BD2 proteins
Protocol: as §4, §5, §6

IC50 (LNCaP cells): 3 nM
IC50 (MV4-11 cells): 3 nM
IC50 (recombinant BRD4 BD1): 5.5 nM
IC50 (MDA-MB-231 cells): 13 nM
IC50 (recombinant BRD4 BD2): 2.4 nM
Compound: CCn1nc(C2CC2)cc1Nc1nc(COC)nc2[nH]c3cc(-c4c(C)noc4C)c(OC)cc3c12 [Cpd. No. 5, N-(3-cyclopropyl-1-ethyl-1H-pyrazol-5-yl)-7-(3,5-dimethylisoxazol-4-yl)-6-methoxy-2-(methoxymethyl)-9H-pyrimido[4,5-b]indol-4-amine]
